Laboratory results taken from ChEMBL document CHEMBL5537132, “Reassessing the putative molecular Target(s) of potent antitubercular 2-(Alkylsulfonyl)acetamides” (2024).
Converted amounts (≈) assume the structure as drawn.

Tested on: Mycobacterium tuberculosis
Test: Antitubercular activity against Mycobacterium tuberculosis H37Rv assessed as bacterial growth incubated for 5 days by resazurin staining based fluorescent plate reader analysis relative to control
Type: functional
Settings: time 5 day

SMILES | Activity
CCCCCCCCCCS(=O)(=O)CC(=O)NC[C@H]1O[C@@H](n2cnc3c(N)ncnc32)[C@H](O)[C@@H]1O | 100%

Tested on: Mycobacterium tuberculosis
Test: Antitubercular activity against Mycobacterium tuberculosis H37Rv assessed as inhibition of bacterial growth by BACTEC radiometric assay
Type: functional
Settings: not given

SMILES | MIC
NC(=O)CS(=O)(=O)CCCCc1ccccc1 | > 25 µg/mL
CCCCCCCCS(=O)(=O)CC(=O)O | > 25 µg/mL
NC(=O)CS(=O)(=O)CCCCCc1ccccc1 | 12.5 µg/mL (≈ 46.4 µM)
NC(=O)CS(=O)(=O)CCCCCCC1C=CC=CC1 (stereo not drawn) | 12.5 µg/mL (≈ 43.8 µM)

Tested on: Mycobacterium tuberculosis
Test: Antitubercular activity against Mycobacterium tuberculosis H37Rv assessed as minimum inhibitory concentration incubated for 5 days by resazurin staining based fluorescent plate reader analysis
Type: functional
Settings: 120 h, time 5 day

SMILES | MIC90
CCCCCCCCCCS(=O)(=O)CC(N)=O | 1.32 µg/mL (≈ 5.01 µM)
CCCCCCCCCCS(=O)(=O)Cc1cn(C[C@H]2O[C@H](OCc3ccccc3)[C@@H](O)[C@@H](O)[C@@H]2O)nn1 | > 50 µg/mL
CCCCCCCCCCS(=O)(=O)Cc1cn(CCCCn2c(=O)oc3ccccc32)nn1 | > 50 µg/mL
CCCCCCCCCCS(=O)(=O)Cc1nc2ccccc2oc1=O | 5.85 µg/mL (≈ 16 µM)
CCCCCCCCCCCS(=O)(=O)CC(N)=O | 1.39 µg/mL (≈ 5.01 µM)
CCCCCCCCCCS(=O)(=O)CC(=O)NC[C@H]1O[C@H](OCc2ccccc2)[C@@H](O)[C@@H](O)[C@@H]1O | > 50 µg/mL
NC(=O)CS(=O)(=O)CCCCCCCCCCc1ccccc1 | 13 µg/mL (≈ 38.3 µM)
CCCCCCCCCCS(=O)(=O)Cc1cn(CCCn2cnc3ccccc32)nn1 | > 50 µg/mL
CCCCCCCCCCS(=O)(=O)Cc1cn(C[C@H]2O[C@@H](n3cnc4c(N)ncnc43)[C@H](O)[C@@H]2O)nn1 | > 50 µg/mL
NC(=O)CS(=O)(=O)Cc1ccccc1 | > 50 µg/mL
NC(=O)CS(=O)(=O)CCCCCCCCc1ccccc1 | 16 µg/mL (≈ 51.4 µM)

Tested on: Mycobacterium tuberculosis
Test: Antitubercular activity against Mycobacterium tuberculosis H37Rv assessed as inhibition of bacterial growth by colorimetric microdilution broth assay
Type: functional
Settings: not given

SMILES | MIC
NC[C@H]1O[C@@H](n2cnc3c(N)ncnc32)[C@H](O)[C@@H]1O | > 100 µg/mL

Tested on: Mycobacterium tuberculosis
Test: Antitubercular activity against Mycobacterium tuberculosis
Type: functional
Settings: not given

SMILES | MIC
CCCCCCS(=O)(=O)CC(N)=O | 241 µM (≈ 50 µg/mL)
NC(=O)CS(=O)(=O)CCCCc1ccccc1 | > 100 µM
CCCCCCCCS(=O)(=O)CC(N)=O | 27 µM (≈ 6.35 µg/mL)
CCCCCCCCCCCCCCCCCCS(=O)(=O)CC(N)=O | > 133 µM
CCCCCCCCCCS(=O)(=O)CC(N)=O | 2.9 µM (≈ 0.764 µg/mL)
CCCCCCCS(=O)(=O)CC(N)=O | > 113 µM
CCCCCCCCCCCCS(=O)(=O)CC(N)=O | 43 µM (≈ 12.5 µg/mL)
CCCCCCCCCCCC(=O)NS(=O)(=O)OC[C@H]1O[C@@H](n2cnc3c(N)ncnc32)[C@H](O)[C@@H]1O | 0.2 µM (≈ 0.106 µg/mL)
NC(=O)CS(=O)(=O)CCCCCc1ccccc1 | 46 µM (≈ 12.4 µg/mL)
CCCCCCCCCS(=O)(=O)CC(N)=O | 12 µM (≈ 2.99 µg/mL)
CCCCCCCCCCCCOP(=O)(O)OC[C@H]1O[C@@H](n2cnc3c(N)ncnc32)[C@H](O)[C@@H]1O | 1.9 µM (≈ 0.98 µg/mL)
Nc1ncnc2c1ncn2[C@@H]1O[C@H](COS(=O)(=O)NC(=O)CCCCCCCCCCOc2ccccc2)[C@@H](O)[C@H]1O | 3.1 µM (≈ 1.88 µg/mL)
CCCCCCCCCOCC(=O)NS(=O)(=O)OC[C@H]1O[C@@H](n2cnc3c(N)ncnc32)[C@H](O)[C@@H]1O | 0.1 µM (≈ 0.0531 µg/mL)
[N-]=[N+]=NCCCCCCCCCCCC(=O)NS(=O)(=O)OC[C@H]1O[C@@H](n2cnc3c(N)ncnc32)[C@H](O)[C@@H]1O | 0.2 µM (≈ 0.114 µg/mL)
NC(=O)CS(=O)(=O)CCCCCCC1C=CC=CC1 (stereo not drawn) | 44 µM (≈ 12.6 µg/mL)
CCCCCCCCCCCCCCCCCCCCOP(=O)(O)OC[C@H]1O[C@@H](n2cnc3c(N)ncnc32)[C@H](O)[C@@H]1O | 0.9 µM (≈ 0.565 µg/mL)
